Molecules are shown by their SMILES.

This data set concerns Osteoblasts (Calvarial cells). Description: Cytotoxicity test (MTT). The conditions noted are these: 1 μM compound, 72 hours, in comparison with vehicle control.
Description: For the preparation of osteoblasts (Calvarial cells), the calvaria were aseptically dissected from 1 to 2-day-old neonatal ICR mice and subjected to continuous reaction with a 0.2% collagenase solution to separate osteoblasts. The cell-suspended supernatant was centrifuged to recover osteoblasts which were grown to full confluence in an α-MEM supplemented with 10% FBS and then diluted to a desired cell density for use in the experiment.
Cytotoxicity of the compounds of the present invention was evaluated by carrying out the experiment described below.
The vehicle control group was established to contain 0.2% DMSO. 100 μL/well of the diluted drugs were dispensed into 96-well plates to which osteoblasts (calvarial cells) prepared in Experimental Example 1 were then added at a density of 1.0×10^4 cells/100 μL/well. Here, the final compound concentration in the cell culture was 1 μM, and the vehicle control group contained 0.1% DMSO. The cells were cultured in a 5% CO2 inhibitor at 37° for 72 hours. 25 μL of 3-(4,5-dimethyl-2-thiazolyl)-2,5-diphenyl-2H-tetrazolium bromide (MTT) dissolved in PBS (2 mg/mL) was added to each cell culture 4 hours before the end of culture. After completion of the reaction, the plates were centrifuged, the media were discarded, and 100 μL of formazan was added and dissolved in dimethyl sulfoxide (DMSO). Finally, the absorbance of the developed plates was measured at 540 nm. The cell viability was expressed as % concentration in comparison with the vehicle control group.
Consider `CC(C)c1nccn1-c1ccc([N+](=O)[O-])c(Nc2ccc(N3CCNCC3)c(F)c2)n1` [Compound 219, 2-[(3-fluoro-4-piperazino)phenylamino]-6-[(2-isopropyl)imidazol-1-yl]-3-nitropyridine], for which the “Cell viability (%) Calvarial cell” value is given as 89%. For the compound `CC(C)(C)Nc1ccc([N+](=O)[O-])c(Nc2ccc(N3CCNCC3)c(F)c2)n1` [Compound 222, 2-[(3-fluoro-4-piperazino)phenylamino]-6-(t-butylamino)-3-nitropyridine], the “Cell viability (%) Calvarial cell” value is 95%. In the case of `CC1=NCCN1c1ccc([N+](=O)[O-])c(Nc2ccc(N3CCC(O)CC3)c(F)c2)n1` [Compound 240, 2-{[3-fluoro-4-(4-hydroxypiperidino)]phenylamino}-6-[(2-methyl-4,5-dihydro)imidazol-1-yl]-3-nitropyridine], the “Cell viability (%) Calvarial cell” value worked out at 97%. Turning to `CC(C)(C)Nc1ccc([N+](=O)[O-])c(Nc2ccc(N3CCC(O)CC3)c(F)c2)n1` [Compound 243, 2-{[3-fluoro-4-(4-hydroxypiperidino)]phenylamino}-6-(t-butylamino)-3-nitropyridine], the “Cell viability (%) Calvarial cell” value came out at 97%. For `O=[N+]([O-])c1ccc(N2CCNCC2)nc1Nc1ccc(N2CCC(O)CC2)c(F)c1` [Compound 245, 2-{[3-fluoro-4-(4-hydroxypiperidino)]phenylamino}-6-(piperazin-1-yl)-3-nitropyridine], the “Cell viability (%) Calvarial cell” value is given as 101%. For `O=[N+]([O-])c1ccc(N2CCOCC2)nc1Nc1ccc(N2CCC(O)CC2)c(F)c1` [Compound 247, 2-{[3-fluoro-4-(4-hydroxypiperidino)]phenylamino}-6-morpholino-3-nitropyridine], the “Cell viability (%) Calvarial cell” value turned out to be 94%.

Take `CNc1ccc([N+](=O)[O-])c(Nc2ccc(N3CCC(N)CC3)c(F)c2)n1` [Compound 248, 2-{[3-fluoro-4-(4-aminopiperidino)]phenylamino}-6-(methylamino)-3-nitropyridine]: the “Cell viability (%) Calvarial cell” value came out at 95%. As to `CC(C)Nc1ccc([N+](=O)[O-])c(Nc2ccc(N3CCC(N)CC3)c(F)c2)n1` [Compound 249, 2-{[3-fluoro-4-(4-aminopiperidino)]phenylamino}-6-(isopropylamino)-3-nitropyridine], the “Cell viability (%) Calvarial cell” value is reported as 101%. As for `CC(C)CNc1ccc([N+](=O)[O-])c(Nc2ccc(N3CCC(N)CC3)c(F)c2)n1` [Compound 250, 2-{[3-fluoro-4-(4-aminopiperidino)]phenylamino}-6-(isobutylamino)-3-nitropyridine], the “Cell viability (%) Calvarial cell” value stood at 85%. As for `NC1CCN(c2ccc(Nc3nc(N4CCC(O)CC4)ccc3[N+](=O)[O-])cc2F)CC1` [Compound 251, 2-{[3-fluoro-4-(4-aminopiperidino)]phenylamino}-6-(4-hydroxypiperidino)-3-nitropyridine], the “Cell viability (%) Calvarial cell” value turned out to be 97%. As for `CN1CCN(c2ccc([N+](=O)[O-])c(Nc3ccc(N4CCC(N)CC4)c(F)c3)n2)CC1` [Compound 254, 2-{[3-fluoro-4-(4-aminopiperidino)]phenylamino}-6-(4-methylpiperazin-1-yl)-3-nitropyridine], the “Cell viability (%) Calvarial cell” value was determined as 101%. With `NC1CCN(c2ccc(Nc3nc(N4CCOCC4)ccc3[N+](=O)[O-])cc2F)CC1` [Compound 255, 2-{[3-fluoro-4-(4-aminopiperidino)]phenylamino}-6-morpholino-3-nitropyridine], the “Cell viability (%) Calvarial cell” value was found to be 100%.

Regarding `NC1CCN(c2ccc([N+](=O)[O-])c(Nc3ccc(N4CCC(N)CC4)c(F)c3)n2)CC1` [Compound 256], the “Cell viability (%) Calvarial cell” value amounted to 104%. For the compound `NC1CCN(c2ccc(Nc3nc(NCCCN4CCOCC4)ccc3[N+](=O)[O-])cc2F)CC1` [Compound 260, 2-{[3-fluoro-4-(4-aminopiperidino)]phenylamino}-6-[(3-morpholin-1-yl)propylamino]-3-nitropyridine], the “Cell viability (%) Calvarial cell” value was 107%.

`CNc1ccc([N+](=O)[O-])c(Nc2ccc(N3CCCCC3C)c(F)c2)n1` (centres unmarked) [Compound 261, 2-{[3-fluoro-4-(2-methylpiperidino)]phenylamino}-6-(methylamino)-3-nitropyridine]: the “Cell viability (%) Calvarial cell” value was 114%.

As for `CC(C)Nc1ccc([N+](=O)[O-])c(Nc2ccc(N3CCCCC3C)c(F)c2)n1` (centres unmarked) [Compound 262, 2-{[3-fluoro-4-(2-methylpiperidino)]phenylamino}-6-(isopropylamino)-3-nitropyridine], the “Cell viability (%) Calvarial cell” value came out at 109%.

As to `CC(C)CNc1ccc([N+](=O)[O-])c(Nc2ccc(N3CCCCC3C)c(F)c2)n1` (centres unmarked) [Compound 263, 2-{[3-fluoro-4-(2-methylpiperidino)]phenylamino}-6-(isobutylamino)-3-nitropyridine], the “Cell viability (%) Calvarial cell” value was 108%. Turning to `CC1CCCCN1c1ccc(Nc2nc(NC(C)(C)C)ccc2[N+](=O)[O-])cc1F` (centres unmarked) [Compound 264, 2-{[3-fluoro-4-(2-methylpiperidino)]phenylamino}-6-(t-butylamino)-3-nitropyridine], the “Cell viability (%) Calvarial cell” value is 117%. As for `CC1CCCCN1c1ccc(Nc2nc(N3CCC(O)CC3)ccc2[N+](=O)[O-])cc1F` (centres unmarked) [Compound 265, 2-{[3-fluoro-4-(2-methylpiperidino)]phenylamino}-6-(4-hydroxypiperidino)-3-nitropyridine], the “Cell viability (%) Calvarial cell” value worked out at 104%. As to `CC1=NCCN1c1ccc([N+](=O)[O-])c(Nc2ccc(N3CCCCC3C)c(F)c2)n1` (centres unmarked) [Compound 266], the “Cell viability (%) Calvarial cell” value worked out at 121%.

Take `CC1CCCCN1c1ccc(Nc2nc(N3CCNCC3)ccc2[N+](=O)[O-])cc1F` (centres unmarked) [Compound 267, 2-{[3-fluoro-4-(2-methylpiperidino)]phenylamino}-6-(piperazin-1-yl)-3-nitropyridine]: the “Cell viability (%) Calvarial cell” value was found to be 107%. On to `CC1CCCCN1c1ccc(Nc2nc(N3CCN(C)CC3)ccc2[N+](=O)[O-])cc1F` (centres unmarked) [Compound 268, 2-{[3-fluoro-4-(2-methylpiperidino)]phenylamino}-6-(4-methylpiperazin-1-yl)-3-nitropyridine], for which the “Cell viability (%) Calvarial cell” value is 104%. Take `CC1CCCCN1c1ccc(Nc2nc(N3CCOCC3)ccc2[N+](=O)[O-])cc1F` (centres unmarked) [Compound 269, 2-{[3-fluoro-4-(2-methylpiperidino)]phenylamino}-6-morpholino-3-nitropyridine]: the “Cell viability (%) Calvarial cell” value worked out at 113%. Take `CC1CCCCN1c1ccc(Nc2nc(N3CCC(N)CC3)ccc2[N+](=O)[O-])cc1F` (centres unmarked) [Compound 270, 2-{[3-fluoro-4-(2-methylpiperidino)]phenylamino}-6-(4-aminopiperidino)-3-nitropyridine]: the “Cell viability (%) Calvarial cell” value is given as 95%.

As to `CC1CCCCN1c1ccc(Nc2nc(NCc3ccncc3)ccc2[N+](=O)[O-])cc1F` (centres unmarked) [Compound 271, 2-{[3-fluoro-4-(2-methylpiperidino)]phenylamino}-6-[(4-pyridyl)methylamino]-3-nitropyridine], the “Cell viability (%) Calvarial cell” value was 107%. Consider `CC1CCCCN1c1ccc(Nc2nc(NCCCn3ccnc3)ccc2[N+](=O)[O-])cc1F` (centres unmarked) [Compound 272, 2-{[3-fluoro-4-(2-methylpiperidino)]phenylamino}-6-[(3-imidazol-1-yl)propylamino]-3-nitropyridine], for which the “Cell viability (%) Calvarial cell” value is reported as 98%. Regarding `CC1CCCCN1c1ccc(Nc2nc(NCCN3CCOCC3)ccc2[N+](=O)[O-])cc1F` (centres unmarked) [Compound 273, 2-{[3-fluoro-4-(2-methylpiperidino)]phenylamino}-6-[2-(morpholin-1-yl)ethylamino]-3-nitropyridine], the “Cell viability (%) Calvarial cell” value came out at 115%. Regarding `CC1CCCCN1c1ccc(Nc2nc(NCCCN3CCOCC3)ccc2[N+](=O)[O-])cc1F` (centres unmarked) [Compound 274, 2-{[3-fluoro-4-(2-methylpiperidino)]phenylamino}-6-[(3-morpholin-1-yl)propylamino]-3-nitropyridine], the “Cell viability (%) Calvarial cell” value is given as 102%. For the compound `CNc1ccc([N+](=O)[O-])c(Nc2ccc(N3CCCC(CO)C3)c(F)c2)n1` (centres unmarked) [Compound 275, 2-{[3-fluoro-4-(3-hydroxymethylpiperidino)]phenylamino}-6-(methylamino)-3-nitropyridine], the “Cell viability (%) Calvarial cell” value turned out to be 121%. As to `CC(C)Nc1ccc([N+](=O)[O-])c(Nc2ccc(N3CCCC(CO)C3)c(F)c2)n1` (centres unmarked) [Compound 276, 2-{[3-fluoro-4-(3-hydroxymethylpiperidino)]phenylamino}-6-(isopropylamino)-3-nitropyridine], the “Cell viability (%) Calvarial cell” value worked out at 102%.

As to `CC(C)CNc1ccc([N+](=O)[O-])c(Nc2ccc(N3CCCC(CO)C3)c(F)c2)n1` (centres unmarked) [Compound 277, 2-{[3-fluoro-4-(3-hydroxymethylpiperidino)]phenylamino}-6-(isobutylamino)-3-nitropyridine], the “Cell viability (%) Calvarial cell” value is recorded as 107%. Then `CC(C)(C)Nc1ccc([N+](=O)[O-])c(Nc2ccc(N3CCCC(CO)C3)c(F)c2)n1` (centres unmarked) [Compound 278, 2-{[3-fluoro-4-(3-hydroxymethylpiperidino)]phenylamino}-6-(t-butylamino)-3-nitropyridine], with 118%; and `O=[N+]([O-])c1ccc(N2CCC(O)CC2)nc1Nc1ccc(N2CCCC(CO)C2)c(F)c1` (centres unmarked) [Compound 279, 2-{[3-fluoro-4-(3-hydroxymethylpiperidino)]phenylamino}-6-(4-hydroxypiperidino)-3-nitropyridine], with 102%; and `CC1=NCCN1c1ccc([N+](=O)[O-])c(Nc2ccc(N3CCCC(CO)C3)c(F)c2)n1` (centres unmarked) [Compound 280, 2-{[3-fluoro-4-(3-hydroxymethylpiperidino)]phenylamino}-6-[(2-methyl-4,5-dihydro)imidazol-1-yl]-3-nitropyridine], with 103%.

As for `O=[N+]([O-])c1ccc(N2CCNCC2)nc1Nc1ccc(N2CCCC(CO)C2)c(F)c1` (centres unmarked) [Compound 281, 2-{[3-fluoro-4-(3-hydroxymethylpiperidino)]phenylamino}-6-(piperazin-1-yl)-3-nitropyridine], the “Cell viability (%) Calvarial cell” value is 107%.

Values taken from patent US20110306606A1, “NOVEL 2,6-SUBSTITUTED-3-NITROPYRIDINE DERIVATIVE, METHOD FOR PREPARING SAME, AND PHARMACEUTICAL COMPOSITION INCLUDING SAME” (priority 2008, published 2011).
